Key:
[1] = test system: hES cells; assay: hES cells cultured in AI medium with inhibitors of FGF receptors, MEK/ERK or Activin/Nodal (TGFβ) signaling; format: cell-based, human; conditions: for morphology / survival of hES cells in AI medium with inhibitor: 100 nM PD173074, 1 μM PD0325901 or 10 μM SB-431542, vs DMSO control; for morphology / survival of hES cells in AI medium with inhibitor / expression of pluripotency proteins OCT4 and NANOG (immunofluorescence): 72 hours; for expression of pluripotency proteins OCT4 and NANOG (immunofluorescence): 100 nM PD173074 or 1 μM PD0325901
Procedure: For culture in AI media, cells were maintained on plates coated with 0.5 μg/cm^2 Laminin-511 (Biolamina, Takara), and generally passaged with ReLeSR, similar to cells in mTeSR™1 on Laminin. Early passage newly-derived hES cells in AI medium were passaged by manual picking. Cells in AI media were also split using various dissociation reagents, as indicated in the Examples. For Accutase or AccuMax (StemCell Technologies), the dissociation reagent was added to wells for 5-10 minutes, the well contents were collected and pelleted, and the dissociation reagent removed. Cells were then resuspended in AI media with or without […] ROCK inhibitor for plating. For Gentle Cell Dissociation Reagent (StemCell Technologies), the reagent was added to wells for 6 minutes, then aspirated and AI medium added. Well contents were collected and disaggregated with a 5 ml stripette. For 0.5 mM EDTA (Sigma), the reagent was added for 5 minutes, then aspirated, and AI medium added and cells disaggregated. For salt-free PBS (Gibco, Life Technologies), the reagent was added for 6 minutes, aspirated, then AI medium added and cells disaggregated.
For inhibitor treatment experiments, cell culture media was supplemented with 100 nM PD173074 (FGF receptor inhibitor), 1 μM PD0325901 (MEK inhibitor) or 10 μM SB-431542 (Activin/Nodal receptor inhibitor) as indicated in the Examples. Cells were exposed to inhibitors for 72 hours.
On the day of fixation, medium was removed from pluripotent cell lines or differentiated cells and the cells were washed with Dulbeco's Phosphate-Buffer saline (PBS) without calcium and magnesium (Thermo Fisher Scientific). Cells were fixed with 4% (w/v) paraformaldehyde (PFA) (ThermoFisher Scientific) for 1 h and permeabilised with 0.5% (w/v) Triton X-100 or 0.5% (v/v) Tween-20 (Sigma Aldrich). Non-specific binding was minimised using 2-10% (v/v) donkey serum (AbCam) in PBS (containing 0.05% (v/v) Tween-20 or 0.01% Tween-20). The following primary antibodies were used (all at 1:500 dilution unless otherwise indicated): anti-NANOG (AF1997 R&D Systems; REC-RCAB0001P, 2B Scientific; 4903P, Cell Signaling Technologies or ab21624, Abcam), anti-SOX17 (AF1924, R&D Systems), anti-TRA-1-81 (MAB4381, Millipore; or 560072, BD Biosciences), anti-TUJ1 (T2200, Sigma), anti-FOXA2 (3143, Cell Signaling), anti-OCT4 (sc-5279, Santa Cruz or 2750S, Cell Signaling Technologies), anti-SSEA4 (MA1-021, Life Technologies or MC-813-70, DSHB, 1:100), anti-TRA-1-60 (MAB4360, Millipore, 1:100), anti-CXCR4 (MAB173, R&D), anti-Desmin (RB-9014-R7, Neomarkers, 1:50), anti-AFP (A0008, Dako), anti-cytokeratin-18 (ab668, Abcam). Primary antibody was removed by washing with PBS (containing 0.05% or 0.01% v/v Tween-20). Secondary antibodies (Alexa Fluor® 488, Alexa Fluor® 594, Alexa Fluor® 555 donkey anti-rabbit, mouse or goat, Molecular Probes) were diluted in blocking solution at a 1:300 concentration and added to the corresponding wells for 1 hour at room temperature. Cells were the washed several times in of 0.1% (v/v) Tween-20 and placed in a last wash for 30 minutes. A drop of Vectashield containing DAPI (Vector Labs) was added to each well prior to imaging.

[2] = test system: human embryos; assay: Human embryo culture with growth factor treatment, immunofluorescence and automated quantification; format: cell-based
Procedure: Human embryos were donated to the research project by informed consent under the UK Human Fertilisation and […] Licence number R0162. Vitrified embryos frozen in straws were thawed by quickly transferring the contents of the straw from liquid nitrogen directly into thaw solution (Irvine Scientific Vitrification Thaw Kit) and thawed as per manufacturer's instructions. Embryos frozen in cryopets were first thawed for 3 seconds in a 37° C. waterbath before transferring into thaw solution (Irvine Scientific Vitrification Thaw Kit). Embryos frozen in glass ampoules were thawed completely in a 37° C. waterbath after the top of the vial was removed under liquid nitrogen. The contents were emptied onto a petri dish and the embryo transferred through a gradient of sucrose solutions (Quinn's Advantage Thaw Kit, Origio) as per manufacturer's instructions.
Embryos were routinely cultured in Global Media (LifeGlobal) supplemented with 5 mg/mL LifeGlobal Protein Supplement pre-equilibrated in an incubator at 37° C. and 5% CO2. For growth factor or inhibitor treatment, these conditions were further supplemented with FGF2 (3718-FB-01M, R&D) or IGF1 (291-G1-10, R&D) as indicated.
Embryos were fixed with 4% (w/v) paraformaldehyde (PFA) (ThermoFisher Scientific) for 1 h at 4° C. on a rotating shaker and analysed as described previously (Niakan and Eggan, Developmental Biology, 2013: doi: 10.1016/j.ydbio.2012.12.008). Briefly, embryos were then transferred through several washes of 0.1% (v/v) Tween-20 (Sigma Aldrich) diluted in Dulbeco's Phosphate-Buffer saline (PBS) without calcium and magnesium (Thermo Fisher Scientific) to remove residual paraformaldehyde. Embryos were placed for 20 minutes in 0.5% (v/v) Tween-20 for permeabilization. Embryos were blocked for 1 hour at room temperature in blocking solution (10% donkey serum diluted in 0.1% (v/v) Tween-20). Embryos were placed in primary antibodies at a concentration of 1:500 in blocking solution overnight at 4° C. on a rotating shaker. The following primary antibodies were used (all at 1:500 dilution): anti-NANOG (AF1997 R&D Systems, REC-RCAB0001P 2B Scientific, or ab21624, Abcam), anti-GATA6 (SC-9055, Santa Cruz) and anti-SOX17 (AF1924, R & D Systems). The following day, embryos were transferred through 4 washes of 0.1% (v/v) Tween-20 then placed in a last wash for 30 minutes. Secondary antibodies (Cy3, FITC or Cy5 donkey anti-rabbit, mouse or goat, Molecular Probes) were diluted in blocking solution at a 1:300 concentration. Embryos were placed in secondary antibody for 1 hour at room temperature on a rotating shaker, transferred through 4 washes of 0.1% (v/v) Tween-20 and placed in a last wash for 30 minutes. Embryos were placed in a 50 μL 1:3 dilution of Vectashield containing DAPI (Vector Labs): 0.1% (v/v) Tween-20 on a coverslip bottom dish (MatTek) for confocal imaging.
Embryos were imaged on a Leica SP5 inverted confocal microscope (Leica Microsystems GmbH) at a z-section thickness of 3 μm or 2 μm for human or mouse embryos respectively. MINS 1.3 software was used to detect and segment nuclei and thus determine the number of cells in each embryo (http://katlab-tools.org/) (Lou et al., Stem Cell Reports 2014, doi: 10.1016/j.stemcr.2014.01.010). Confocal stacks in .tif format were loaded into the MINS pipeline for automated nuclear segmentation.
The MINS segmentation output was manually checked for appropriate segmentation and mitotic nuclei were removed from the analysis. Data were subsequently plotted using GraphPad Prism version 6 (GraphPad Software, La Jolla, Calif.).

[3] = test system: H9 cells; assay: Test of laminin variants as basement membrane substrate for H9 cells in mTeSR1; format: cell-based, human; conditions: 0.5 μg/cm^2 coating, mTeSR1 media, 3 days, vs Matrigel
From the text: We therefore interrogated the transcriptome data set to identify chemically defined and physiologically relevant substrates for the derivation of hES and iPS cells. We also interrogated the transcriptome data set and identified expression of transcripts for laminin-binding Integrin α6 and Integrin-β1 (ITGA6, ITGB1) in the human blastocyst, as shown in FIG. 3A. […] Consequently, recombinant human Laminin-511 (Biolamina) or a recombinant Laminin-511 E8 fragment (iMatrix-511, Takara) were selected as basement membrane substrates to culture hES cells, in order to recapitulate the niche within the blastocyst. To test the laminin variants, H9 cells in mTeSR™1 media were passaged onto plates coated with 0.5 μg/cm^2 of either iMatrix-511 (Takara) or LN-511 (Biolamina), as well as a control Matrigel plate, and cultured for 3 days.
For culture in mTeSR™1 media (StemCell Technologies), cells were generally maintained on Matrigel-coated (BD Biosciences) tissue culture plates. Matrigel coating was performed for one hour at room temperature (RT) as per the manufacturer's instructions Cells were passaged as clumps using ReLeSR (Stemcell Technologies). ReLeSR was added to wells for 30 seconds at RT then aspirated, then plates were incubated for 5 minutes at 37° C., quenched with mTeSR™1 and lightly tapped to dislodge clumps of the desired size. […]

CCN(CC)CCCCNc1ncc2cc(-c3cc(OC)cc(OC)c3)c(NC(=O)NC(C)(C)C)nc2n1 [FGF receptor inhibitor, PD173074]
morphology / survival of hES cells in AI medium with inhibitor [1]: retained the morphology of pluripotent cells | expression of pluripotency proteins OCT4 and NANOG (immunofluorescence) [1]: retained the expression

FGF2
GATA6 (extraembryonic marker) expression ([2]; 100 ng/ml FGF2 from E2.5): still expressed | NANOG expression compared to untreated controls (immunofluorescence) ([2]; 100 ng/ml FGF2 from E2.5, analysed at E6-7): loss of NANOG expression | NANOG expression ([2]; 100 ng/ml FGF2 from E5 to E6-7): remained expressed | SOX17 (extraembryonic marker) expression ([2]; 100 ng/ml FGF2 from E5 to E6-7): remained expressed | GATA6 (extraembryonic marker) expression ([2]; 1 μg/ml FGF2 from E2.5): still expressed | NANOG expression compared to untreated controls (immunofluorescence) ([2]; 1 μg/ml FGF2 from E2.5, analysed at E6-7): loss of NANOG expression

IGF1
increase in the proportion of NANOG expressing cells compared to control embryos ([2]; 17 nM IGF1 from E2.5, analysed at E6-7, p-value<0.05): 2 fold | KLF17 (epiblast marker) expression ([2]; human embryos treated with IGF1): expressed in a higher proportion of cells

O=C(NOC[C@H](O)CO)c1ccc(F)c(F)c1Nc1ccc(I)cc1F [MEK/ERK inhibitor, PD0325901]
morphology / survival of hES cells in AI medium with inhibitor [1]: retained the morphology of pluripotent cells | expression of pluripotency proteins OCT4 and NANOG (immunofluorescence) [1]: retained the expression

Laminin-511: recombinant human Laminin-511 (Biolamina)
pluripotency morphology of H9 cells on substrate [3]: equivalent to Matrigel coating

NC(=O)c1ccc(-c2nc(-c3ccc4c(c3)OCO4)c(-c3ccccn3)[nH]2)cc1 [TGFβ inhibitor, SB-431542]
morphology / survival of hES cells in AI medium with inhibitor [1]: underwent apoptosis | NANOG expression in remaining colonies (immunofluorescence) ([1]; 10 μM SB-431542, 3 days): undetectable in the majority of cells

From patent US20190330597A1, “COMPOSITION FOR CULTURE OF PLURIPOTENT STEM CELLS” (The Francis Crick Institute Limited, priority 2017, published 2019)
